Holding throughout (assay type): functional
Experiment [1] deals with Cavia porcellus. In words: Antioxidant activity against gamma irradiation-induced ROS production in Cavia porcellus (guinea pig) liver assessed as thiobarbituric acid reactive substance level per g tissue at 50 U/Kg, ip administered 2 days prior to irradiation-challenge measured after 30 min by spectroscopic analysis (reference value: 168.75 +/- 12.54 nmol per g tissue).

Experiment [2] concerns Cavia porcellus. In words: Antioxidant activity against gamma irradiation-induced ROS production in Cavia porcellus (guinea pig) liver assessed as superoxide dismutase level per mg protein at 50 U/Kg, ip administered 2 days prior to irradiation-challenge measured after 30 min by spectroscopic analysis (reference value: 8.72 +/- 1.94 U per mg protein).
For experiment [3], the system named is Cavia porcellus. In words: Antioxidant activity against gamma irradiation-induced ROS production in Cavia porcellus (guinea pig) liver assessed as nitric oxide level at 50 U/Kg, ip administered 2 days prior to irradiation-challenge measured after 30 min by ESR spectroscopic analysis (reference value: 0.3 +/- 0.08 a.u).
Experiment [4] concerns Cavia porcellus. In words: Antioxidant activity against gamma irradiation-induced ROS production in Cavia porcellus (guinea pig) liver assessed as glutathione peroxidase level per mg protein at 50 U/Kg, ip administered 2 days prior to irradiation-challenge measured after 30 min by spectroscopic analysis (reference value: 0.76 +/- 0.06 U per mg protein).

`CC1=C(/C=C/C(C)=C/C=C/C(C)=C/CO)C(C)(C)CCC1` [RETINOL]: the Activity in the experiment on Cavia porcellus [1] stood at 197 nmol/g; in the experiment with Cavia porcellus [2], 6.66 U/mg; with Cavia porcellus [3], 1.04 a.u; in the experiment with Cavia porcellus [4] it was 0.39 U/mg.

The values are drawn from ChEMBL document CHEMBL3045926, “Exacerbative role of vitamn A on radiation damage in vivo” (2008).
